Three compounds from publication PMC9555560, “Fast relaxing red and near-IR switchable azobenzenes with chalcogen and halogen substituents: periodic trends, tuneable thermal half-lives and chalcogen bonding” (Chemical Science, 2022) can be followed below.

The nature of data set [1]: UV-vis spectra of the E isomers (n → π* absorption maximum). It counts as physicochemical. The note with it: E isomer, DMSO. The text has this:
The UV-vis spectra of the (E)-X4 derivatives and (E)-X2,m-Y2 are shown in Fig. 3 (analogous spectra for the Z isomers, and deconvoluted spectra are available in the ESI ^†). […] The n → π* transition maximum, λmax, typically followed the order meta-H > –NMe2 > –OMe and ortho-S > Cl > F. It is clear from these experiments that the four ortho X substituents in the X4 derivatives are essential for achieving the deeply red-shifted tails which allows for red/near-IR triggered photo-isomerisation.
(§1) All UV-vis spectra were determined in DMSO solution. Extinction coefficients were determined by recording a UV-vis spectra for the E isomer at 10, 20, 30, 40 µM in DMSO respectively. The absorbance at the maximum of the π - π* transition of the E‐isomers was plotted against concentration (Beer-Lambert plot) to determine the molar extinction coefficient ε. For each slow relaxing compound, the E isomer sample at 40 µM was irradiated with the appropriate wavelength of light to generate the photo-stationary state, and another spectrum was run. This spectrum was normalised to units of ε and overlaid with the dark (100% E isomer) spectrum.

Data set [2] is described as follows: E → Z photo-isomerisation with LEDs / photo-stationary state (PSS) determination. The note with it: under irradiation. Format: physicochemical. The procedure:
The E → Z photo-isomerisation and half-life for the Z → E thermal isomerisation was evaluated for all derivatives (Fig. 7 and Table 1, see ESI ^† for original data). To our surprise, the half-lives for (Z)-X2,m-Y2 derivatives were in the order of hours to days for X = F and Cl: the effect of the meta group was not as drastic as anticipated. We typically observed a ∼4 fold decrease in half-life by substituting H with OMe, and a further 3-fold drop from OMe to NMe2 for X = F, Cl and SEt. The nature of the ortho-substituent appeared to be the main influence on τ1/2 (F > Cl ≫ SEt). However, these predictable trends observed for the meta-substitution allow for precise tuning of thermal half-lives. The photo-stationary states (PSSs) of these derivatives ranged from 48–77% Z isomer (Table 1).
Remarkably, it was possible to photo-switch the tetra-iodo derivative I4-ester using near-IR light (730 nm) (Fig. 8C). […] Photo-isomerisation was not detected for the ortho-telluro derivatives. This is consistent with findings by Haberhauer and co-workers, who propose that the strong chalcogen bonds in the E isomer of a PhTe-substituted azobenzene lead to dramatic energy differences between the E and Z isomers, which suppresses photoswitching.[43] The photo-stationary states of the halogen X4 derivatives range from 50–84% (Table 1) and could also be determined for the slower relaxing chalcogen derivatives (PSS 46–95%, see Fig. S308–S323 ^† for original data).
as §1, with “spectrum. […]” for “spectrum.”

For `COc1cc(CNC(=O)OC(C)(C)C)c(OC)c(F)c1/N=N/c1c(OC)cc(CNC(=O)OC(C)(C)C)c(OC)c1F` [(OMe)2F2,m-OMe2-NHBoc], in data set [1], the “λ max of n → π* transition” value was 425.4 nm. Besides, the Stability to light entry in data set [2] is “unstable to light”.
In the same order, the values of `COc1cc(/N=N/c2cc(OC)c(CNC(=O)OC(C)(C)C)cc2OC)c(OC)cc1CNC(=O)OC(C)(C)C` [OMe2,m-OMe2] are 426.6 nm and “unstable to light”.
As to `CCSc1cc(CNC(=O)OC(C)(C)C)c(OC)c(SCC)c1/N=N/c1c(SCC)cc(CNC(=O)OC(C)(C)C)c(OC)c1SCC` [(SEt)4,m-OMe2-NHBoc], in data set [1], the “λ max of n → π* transition” value is given as 512.9 nm. The Stability to light entry in data set [2] is reported as “unstable to light”.
